Measurements: the supplement of paper PMC10627819

What was measured:
S. aureus DSM 20231 [1] = assay: Bliss interaction score (quartile over a dose matrix) (fitness difference); higher = more antagonism (negative = synergy)
Outline: (§1)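 Fitness was derived from optical density at entry into stationary phase, divided by the robust mean of the no-drug wells on the same plate. That reading was taken as OD595, and the ratio was capped at 1. Single-drug fitness was inferred from the combination data. The Bliss score, observed fitness minus the expected product of single-drug fitness, was summarised as quartiles over technical, biological and donor/recipient replicates.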

B. subtilis 168 [2] = assay: as above
Outline: as §1

S. aureus Newman [3] = assay: as above
Outline: as §1

S. pneumoniae D39V [4] = assay: as above
Outline: as §1

S. aureus DSM 20231 [5] = assay: fitness (endpoint OD595 vs no drug) (fraction); higher = more growth
Outline: (§2)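 Bacterial growth was followed in 384-well plates seeded at OD595 0.01, with 30 µl per well, or 55 µl for S. pneumoniae, in TSB, LB Lennox or CY at 37 °C. OD595 was read every 30 min for 14 h, and each reading had the first reading subtracted as background. Fitness is the background-corrected optical density at entry into stationary phase divided by the robust mean of the no-drug control wells. This ratio is capped at 1.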

B. subtilis 168 [6] = assay: as above
Outline: as §2

S. aureus Newman [7] = assay: as above
Outline: as §2

S. pneumoniae D39V [8] = assay: as above
Outline: as §2
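Wherever Bliss interaction score (quartile over a dose matrix) is given: first quartile when negative (synergy) and third quartile when positive (antagonism).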

COc1cccc2c1C(=O)c1c(O)c3c(c(O)c1C2=O)C[C@@](O)(C(=O)CO)C[C@@H]3O[C@H]1C[C@H](N)[C@H](O)[C@H](C)O1 [Doxorubicin] + CN1C2=CC=CC=C2N=C3C1=CC=CC3=O [Pyocyanin]
Conditions | Bliss interaction score
B. subtilis 168 [2] | 0.0456
S. aureus DSM 20231 [1] | -0.0672
S. aureus Newman [3] | -0.0556
S. pneumoniae D39V [4] | 0.0322

Conditions | fitness
B. subtilis 168 [6], first compound 0.625 µg/mL, partner 1.25 µg/mL | 0.888
B. subtilis 168 [6], first compound 0.625 µg/mL, partner 2.5 µg/mL | 0.878
B. subtilis 168 [6], first compound 0.625 µg/mL, partner 5 µg/mL | 0.684
B. subtilis 168 [6], first compound 1.25 µg/mL, partner 1.25 µg/mL | 0.853
B. subtilis 168 [6], first compound 1.25 µg/mL, partner 2.5 µg/mL | 0.841
B. subtilis 168 [6], first compound 1.25 µg/mL, partner 5 µg/mL | 0.625
B. subtilis 168 [6], first compound 2.5 µg/mL, partner 1.25 µg/mL | 0.631
B. subtilis 168 [6], first compound 2.5 µg/mL, partner 2.5 µg/mL | 0.54
S. aureus DSM 20231 [5], first compound 0.625 µg/mL, partner 1.25 µg/mL | 0.863
S. aureus DSM 20231 [5], first compound 0.625 µg/mL, partner 2.5 µg/mL | 0.827
S. aureus DSM 20231 [5], first compound 0.625 µg/mL, partner 5 µg/mL | 0.578
S. aureus DSM 20231 [5], first compound 1.25 µg/mL, partner 1.25 µg/mL | 0.857
S. aureus DSM 20231 [5], first compound 1.25 µg/mL, partner 2.5 µg/mL | 0.865
S. aureus DSM 20231 [5], first compound 1.25 µg/mL, partner 5 µg/mL | 0.641
S. aureus DSM 20231 [5], first compound 2.5 µg/mL, partner 1.25 µg/mL | 0.744
S. aureus DSM 20231 [5], first compound 2.5 µg/mL, partner 2.5 µg/mL | 0.699
S. aureus DSM 20231 [5], first compound 2.5 µg/mL, partner 5 µg/mL | 0.487
S. aureus Newman [7], first compound 0.625 µg/mL, partner 1.25 µg/mL | 0.733
S. aureus Newman [7], first compound 0.625 µg/mL, partner 2.5 µg/mL | 0.687
S. aureus Newman [7], first compound 0.625 µg/mL, partner 5 µg/mL | 0.438
S. aureus Newman [7], first compound 1.25 µg/mL, partner 1.25 µg/mL | 0.716
S. aureus Newman [7], first compound 1.25 µg/mL, partner 2.5 µg/mL | 0.639
S. aureus Newman [7], first compound 2.5 µg/mL, partner 1.25 µg/mL | 0.674
S. aureus Newman [7], first compound 2.5 µg/mL, partner 2.5 µg/mL | 0.584
S. pneumoniae D39V [8], first compound 0.25 µg/mL, partner 0.325 µg/mL | 0.986
S. pneumoniae D39V [8], first compound 0.25 µg/mL, partner 0.65 µg/mL | 0.92
S. pneumoniae D39V [8], first compound 0.25 µg/mL, partner 1.3 µg/mL | 0.766
S. pneumoniae D39V [8], first compound 0.5 µg/mL, partner 0.325 µg/mL | ≥ 1
S. pneumoniae D39V [8], first compound 0.5 µg/mL, partner 0.65 µg/mL | 0.938
S. pneumoniae D39V [8], first compound 0.5 µg/mL, partner 1.3 µg/mL | 0.773
S. pneumoniae D39V [8], first compound 1 µg/mL, partner 0.325 µg/mL | 0.942
S. pneumoniae D39V [8], first compound 1 µg/mL, partner 0.65 µg/mL | 0.868
S. pneumoniae D39V [8], first compound 1 µg/mL, partner 1.3 µg/mL | 0.729

C[C@@H]1O[C@@H]1P(=O)(O)O [Fosfomycin] + CN[C@@H]1[C@H](O)[C@H](NC)[C@H]2O[C@@]3(O)C(=O)C[C@@H](C)O[C@H]3O[C@@H]2[C@H]1O [Spectinomycin]
Conditions | Bliss interaction score
B. subtilis 168 [2] | -0.107
S. aureus DSM 20231 [1] | -0.0508
S. aureus Newman [3] | -0.171
S. pneumoniae D39V [4] | 0.0537

fitness
Conditions | partner 2 µg/mL | partner 4 µg/mL | partner 8 µg/mL | partner 16 µg/mL
B. subtilis 168 [6], first compound 1.562 µg/mL | 0.657 | 0.662 | 0.601 | –
B. subtilis 168 [6], first compound 3.124 µg/mL | 0.554 | 0.526 | 0.426 | –
B. subtilis 168 [6], first compound 6.248 µg/mL | 0.431 | 0.4 | 0.212 | –
S. aureus DSM 20231 [5], first compound 0.781 µg/mL | – | 0.69 | 0.72 | 0.683
S. aureus DSM 20231 [5], first compound 1.562 µg/mL | – | 0.588 | 0.568 | 0.595
S. aureus DSM 20231 [5], first compound 3.124 µg/mL | – | 0.511 | 0.495 | 0.416
S. aureus Newman [7], first compound 0.781 µg/mL | – | 0.574 | 0.58 | 0.497
S. aureus Newman [7], first compound 1.562 µg/mL | – | 0.452 | 0.412 | 0.234
S. aureus Newman [7], first compound 3.124 µg/mL | – | 0.0691 | 0.0277 | 0.0028
S. pneumoniae D39V [8], first compound 1.25 µg/mL | – | 0.943 | 0.885 | 0.806
S. pneumoniae D39V [8], first compound 2.5 µg/mL | – | 0.899 | 0.868 | 0.817
S. pneumoniae D39V [8], first compound 5 µg/mL | – | 0.704 | 0.734 | 0.652

fitness, one replicate
Conditions | first compound 0.781 µg/mL | first compound 1.562 µg/mL | first compound 3.124 µg/mL
S. aureus DSM 20231 [5], partner 32 µg/mL | 0.692 | 0.564 | 0.268
S. aureus DSM 20231 [5], partner 64 µg/mL | 0.0413 | 0.0145 | 0.0077
S. aureus Newman [7], partner 32 µg/mL | 0.056 | 0.0135 | 0
S. aureus Newman [7], partner 64 µg/mL | 0.0367 | 0.0527 | 0.0276

CO/N=C(\C(=O)N[C@@H]1C(=O)N2C(C(=O)O)=C(COC(C)=O)CS[C@H]12)c1csc(N)n1 [Cefotaxime] + CCN(CC)CCOC(=O)c1ccc(N)cc1 [Procaine]
Conditions | Bliss interaction score
B. subtilis 168 [2] | 0.0852
S. aureus DSM 20231 [1] | -0.0909
S. aureus Newman [3] | -0.0467
S. pneumoniae D39V [4] | -0.0264

fitness, one replicate
Conditions | partner 85.5 µg/mL | partner 171 µg/mL | partner 342 µg/mL
B. subtilis 168 [6], first compound 0.00775 µg/mL | 0.834 | 0.848 | 0.811
B. subtilis 168 [6], first compound 0.0155 µg/mL | 0.701 | 0.691 | 0.64
B. subtilis 168 [6], first compound 0.031 µg/mL | 0.583 | 0.572 | 0.561
S. aureus DSM 20231 [5], first compound 0.039 µg/mL | 0.632 | 0.766 | 0.762
S. aureus Newman [7], first compound 0.078 µg/mL | 0.608 | 0.612 | 0.595
S. aureus Newman [7], first compound 0.156 µg/mL | 0.454 | 0.459 | 0.438
S. aureus Newman [7], first compound 0.312 µg/mL | 0.276 | 0.255 | 0.264

fitness
Conditions | partner 85.5 µg/mL | partner 171 µg/mL | partner 342 µg/mL
B. subtilis 168 [6], first compound 0.5 µg/mL | 0.243 | 0.225 | 0.259
B. subtilis 168 [6], first compound 1 µg/mL | 0.165 | 0.125 | 0.169
B. subtilis 168 [6], first compound 2 µg/mL | 0.0861 | 0.0682 | 0.118
S. aureus DSM 20231 [5], first compound 0.078 µg/mL | 0.721 | 0.786 | 0.77
S. aureus DSM 20231 [5], first compound 0.156 µg/mL | 0.62 | 0.703 | 0.712
S. aureus DSM 20231 [5], first compound 0.312 µg/mL | 0.579 | 0.67 | 0.664
S. aureus Newman [7], first compound 0.625 µg/mL | 0.169 | 0.111 | 0.139
S. aureus Newman [7], first compound 1.25 µg/mL | 0.0581 | 0.0383 | 0.0412
S. aureus Newman [7], first compound 2.5 µg/mL | 0.0238 | 0.0269 | 0.0485
S. pneumoniae D39V [8], first compound 0.0018 µg/mL | ≥ 1 | ≥ 1 | ≥ 1
S. pneumoniae D39V [8], first compound 0.0035 µg/mL | 0.954 | ≥ 1 | 0.945
S. pneumoniae D39V [8], first compound 0.007 µg/mL | 0.904 | 0.92 | 0.844

COc1cccc2c1C(=O)c1c(O)c3c(c(O)c1C2=O)C[C@@](O)(C(=O)CO)C[C@@H]3O[C@H]1C[C@H](N)[C@H](O)[C@H](C)O1 [Doxorubicin] + CN(N=O)C(=O)N[C@@H](C=O)[C@@H](O)[C@H](O)[C@H](O)CO [Streptozotocin]
Conditions | Bliss interaction score
B. subtilis 168 [2] | 0.0771
S. aureus DSM 20231 [1] | -0.0251
S. aureus Newman [3] | 0.11
S. pneumoniae D39V [4] | 0.0618

fitness
Conditions | first compound 0.25 µg/mL | first compound 0.5 µg/mL | first compound 0.625 µg/mL | first compound 1 µg/mL | first compound 1.25 µg/mL | first compound 2.5 µg/mL
B. subtilis 168 [6], partner 0.15 µg/mL | – | – | 0.961 | – | 0.957 | 0.663
B. subtilis 168 [6], partner 0.3 µg/mL | – | – | ≥ 1 | – | 0.956 | 0.582
B. subtilis 168 [6], partner 0.6 µg/mL | – | – | 0.993 | – | 0.939 | 0.627
S. aureus DSM 20231 [5], partner 0.15 µg/mL | – | – | 0.762 | – | 0.828 | 0.787
S. aureus DSM 20231 [5], partner 0.3 µg/mL | – | – | 0.741 | – | 0.726 | 0.746
S. aureus DSM 20231 [5], partner 0.6 µg/mL | – | – | 0.631 | – | 0.651 | 0.595
S. aureus Newman [7], partner 0.15 µg/mL | – | – | 0.702 | – | 0.7 | 0.709
S. aureus Newman [7], partner 0.3 µg/mL | – | – | 0.656 | – | 0.68 | 0.646
S. aureus Newman [7], partner 0.6 µg/mL | – | – | 0.607 | – | 0.604 | 0.541
S. pneumoniae D39V [8], partner 1.2 µg/mL | 0.919 | 0.929 | – | 0.852 | – | –
S. pneumoniae D39V [8], partner 2.4 µg/mL | 0.898 | 0.919 | – | 0.866 | – | –
S. pneumoniae D39V [8], partner 4.8 µg/mL | 0.966 | 0.972 | – | 0.91 | – | –
